From patent US12264296B2, “Compositions that contain lipophilic plant material and surfactant, and related methods” (priority 2020, dated 2025)
Values after ≈ are worked out from the molar mass of the structure shown.

Experiments:
Assay type in all cases: physicochemical
[1] = Solubility in the amide-based surfactant DMDA (Met10u)
[2] = Solubility of CBDA in mineral oil; settings: oil or lipid, under certain conditions
Solubility in water = test: Solubility in water
[3] = Thermal stability (decarboxylation) of CBDA; settings: in Met10u solution

## C=C(C)[C@@H]1CCC(C)=C[C@H]1c1c(O)cc(CCCCC)c(C(=O)O)c1O [CBDA, Δ(9)-tetrahydrocannabidiolic acid]
[1]; at 0 C
  solubility of CBDA in Met10u: 1%
[1]; at 60 C
  solubility of CBDA in Met10u: 100%
[1]; at 70 C
  solubility in DMDA: over 1000 mg/ml DMDA
[2]
  solubility: ~6000 µg/mL (≈ 16.7 mM)
Solubility in water; temperature of 4 degrees Celsius or lower, pH 4 or lower
  solubility of CBDA in water: below 20 micrograms per milliliter
Solubility in water; temperature of 70 degrees Celsius or higher, pH of 10 or higher
  solubility of CBDA in water: over 20 milligrams per milliliter
[3]
  temperature at which CBDA begins to lose its carboxylic moiety (decarboxylation) and become CBD: at least 130 C
